According to patent US11590158B2, “Pharmaceutical compositions of lipoic acid choline ester salts and methods of treatment using same” (Novartis AG, priority 2020, dated 2023):
Entries after “also recorded” stand apart in the source; their conditions may differ. Structures can show the parent of a compound that is named as a salt. Where two headings read alike, the source gives them in different places.

How the values were obtained:
[1] = Stability in aqueous solutions or suspensions; assay type: physicochemical
Description: At pH 4.7 buffer solution about 4% degradation is observed.

[2] = Stability in organic solutions or suspensions; assay type: physicochemical; conditions: 40° C. for 1 week
Photostability = assay type: physicochemical
[3] = Hygroscopicity (exposure to RH, DVS); assay type: physicochemical; conditions: for Hygroscopicity upon exposure: 58% RH for one day; for Hygroscopicity: solid salt, ambient conditions
Description: It is deliquescent upon exposure to 58% RH for one day. In DVS measurement, LACE chloride absorbs 18.6% moisture from 0% RH to 50% RH. The DVS isotherm is irreversible. It is amorphous at ambient but crystalline under 0% RH by Cryo-XRPD.

[4] = Equilibration of LACE chloride in solvents (solubility test); assay type: physicochemical; conditions: 100 mg in 1 mL, 25° C. for 7 days
Description: The mixture was equilibrated for 7 days, with visual observations at days 1, 2, and 7. If a slurry resulted, it was filtered and clear solutions were either cooled or evaporated.

[5] = 1 week
Description: (§1) LACE salts were dissolved in each of the following excipients: 0.01% benzalkonium chloride, 20 mM acetate buffer, 20 mM citrate buffer, 1% Na-carboxymethyl cellulose, 1% hydroxypropylmethyl cellulose and 0.01% Na-ethylene diamine tetraacetic acid.

[6] = Hygroscopicity (exposure to RH, DVS); assay type: physicochemical; conditions: for Hygroscopicity / Hygroscopicity, water uptake: DVS; for Hygroscopicity: >70% RH; for Hygroscopicity, water uptake: until 70% RH
[7] = pH 4.7 buffer solution, 40° C. for 1 week
[8] = other solvents (EtOAC, acetone, IPA and THF)
[9] = 5% solutions in aqueous excipients (0.01% BAC, 20 mM acetate, 20 mM citrate, 1% Na-CMC, 1% HPMC, 0.01% Na-EDTA), 40° C. for 2 weeks
[10] = same excipients, 40° C. for 2 weeks
[11] = same excipients, 40° C./75% RH for 2 weeks

Description for Excipient compatibility: as §1

C[N+](C)(C)CCOC(=O)CCCCC1CCSS1.[I-] (centres unmarked) [LACE-I, lipoic acid choline ester iodide]
degradation [1, 7]: about 4%
degradation ([2]; methanol and ethanol): complete degradation
degradation [2, 8]: severe degradation
photostability (Photostability; amber vial): stable
photostability, physical form (Photostability; amber vial): remains the same
photostability, degradation (Photostability; clear vial): severe degradation and color change
photostability, physical form (Photostability; clear vial): remains unchanged
Hygroscopicity upon exposure [3]: non-hygroscopic
Hygroscopicity by DVS ([3]; DVS): non-hygroscopic
physical form (Solid state stability; 40° C. 75% RH for 1 week): form remains the same
solid state stability / physical form (Solid state stability; 40° C. for 1 week): stable
behaviour on handling / exposure at ambient conditions (Solid state stability): changes color; also recorded: discoloration and possibly slow degradation
degradation (Excipient compatibility; [9]): about 5%
degradation (Excipient compatibility; [10]): higher degradation
degradation (Excipient compatibility; [11]): high-severe degradation

C[N+](C)(C)CCOC(=O)CCCC[C@@H]1CCSS1.[Cl-] [LACE-Cl, lipoic acid choline ester chloride]
Comments (equilibration in solvent) ([4]; 2-Me-THF): sticky solid
Comments (equilibration in solvent) ([4]; 2 Methyl 2 butanone): Clear solution after 7 days
Comments (equilibration in solvent) ([4]; ACN): Clear solution after 7 days
Comments (equilibration in solvent) ([4]; Acetic acid): almost dissolved
Comments (equilibration in solvent) ([4]; Acetone): initial suspension, with particles stuck on wall
Comments (equilibration in solvent) ([4]; Anisole): sticky solid
Comments (equilibration in solvent) ([4]; Benzyl alcohol): Clear solution after 7 days
Comments (equilibration in solvent) ([4]; Chloroform): clear solution that yielded an oil after
Comments (equilibration in solvent) ([4]; Cumene): undissolved solid after 7 days
Comments (equilibration in solvent) ([4]; Cyclohexane): undissolved solid after 7 days
Comments (equilibration in solvent) ([4]; DCM): Clear solution after 7 days
Comments (equilibration in solvent) ([4]; Diethyl ether): undissolved solid after 7 days
Comments (equilibration in solvent) ([4]; Dioxane): initial suspension, with particles stuck on wall
Comments (equilibration in solvent) ([4]; EtOAc): suspension
Comments (equilibration in solvent) ([4]; EtOH): Clear solution after 7 days
Comments (equilibration in solvent) ([4]; Ethyl formate): suspension
Comments (equilibration in solvent) ([4]; IPAc): undissolved solid after 7 days
Comments (equilibration in solvent) ([4]; MEK): initial suspension, with particles stuck on wall
Comments (equilibration in solvent) ([4]; MTBE): initial suspension, with particles stuck on wall
Comments (equilibration in solvent) ([4]; MeOH): Clear solution after 7 days
Comments (equilibration in solvent) ([4]; Nitromethane): Clear solution after 7 days
Comments (equilibration in solvent) ([4]; Petroleum ether): undissolved solid after 7 days
Comments (equilibration in solvent) ([4]; Propylene glycol): Clear solution after 7 days
Comments (equilibration in solvent) ([4]; Pyridine): almost dissolved
Comments (equilibration in solvent) ([4]; THF): initial suspension turning sticky
Comments (equilibration in solvent) ([4]; Toluene): sticky solid
Comments (equilibration in solvent) ([4]; Water): Clear solution after 7 days
Comments (equilibration in solvent) ([4]; Xylene): undissolved solid after 7 days
degradation [1, 7]: about 4%
degradation ([2]; methanol and ethanol): complete degradation
degradation [2, 8]: severe degradation
photostability, degradation (Photostability; amber vial): ~5%
photostability, physical form (Photostability; amber vial): becomes sticky
photostability, degradation (Photostability; clear vial): severe degradation and color change
photostability, physical form (Photostability; clear vial): becomes sticky
Hygroscopicity upon exposure [3]: deliquescent
moisture absorbed in DVS ([3]; from 0% RH to 50% RH): 18.6%
Hygroscopicity [3]: highly hygroscopic
degradation (Solid state stability; 40° C. 75% RH for 1 week): approximately 7%
physical form (Solid state stability; 40° C. 75% RH for 1 week): becomes sticky mass
degradation (Solid state stability; 40° C. for 1 week): approximately 7%
solid state stability / physical form (Solid state stability; 40° C. for 1 week): becomes sticky mass
behaviour on handling / exposure at ambient conditions (Solid state stability): not suitable for handling under normal conditions
degradation (Excipient compatibility; [9]): about 5%
degradation (Excipient compatibility; in Na-CMC, alanine and histidine, 25° C. for 1 week): 2-3%
degradation (Excipient compatibility; [10]): higher degradation
degradation (Excipient compatibility; [11]): high-severe degradation
degradation (Excipient compatibility; with HPMC, 25° C. for 1 week): ~8%
degradation (Excipient compatibility; with HPβCD, 25° C. for 1 week): 3.35%

C[N+](C)(C)CCOC(=O)CCCCC1CCSS1 (centres unmarked) [LACE-OBs, lipoic acid choline ester besylate]
degradation ([1]; 1 week): 10-99%
degradation ([1]; 1 week, pH 4.7): about 4%
degradation ([2]; methanol and ethanol): complete degradation
degradation [2, 8]: severe degradation
photostability (Photostability; amber vial): stable
photostability, physical form (Photostability; amber vial): remains the same
photostability, degradation (Photostability; clear vial): severe degradation and color change
photostability, physical form (Photostability; clear vial): decrease in crystallinity
Hygroscopicity upon exposure [3]: deliquescent
Hygroscopicity [3]: hygroscopic
degradation [5]: < 2%
Hygroscopicity upon exposure ([6]; 58% RH up to 6 hours): non hygroscopic
Hygroscopicity by DVS ([6]; DVS from 50% RH to 90% RH): deliquescent
physical form (Solid state stability; 40° C. 75% RH for 1 week): become sticky
solid state stability / physical form (Solid state stability; 40° C. for 1 week): stable

C[N+](C)(C)CCOC(=O)CCCCC1CCSS1 (centres unmarked) [LACE-OTs, lipoic acid choline ester tosylate]
degradation ([2]; methanol and ethanol): complete degradation
degradation [2, 8]: severe degradation
photostability (Photostability; amber vial): stable
photostability, physical form (Photostability; amber vial): remains the same
photostability, degradation (Photostability; clear vial): severe degradation and color change
photostability, physical form (Photostability; clear vial): some amorphous content
Hygroscopicity upon exposure [3]: non-hygroscopic
degradation [5]: < 2%
degradation ([5]; 5 %): 1-3%
moisture absorbed in DVS ([6]; up to 60% RH): less than 2%
physical form (Solid state stability; 40° C. 75% RH for 1 week): become sticky
solid state stability / physical form (Solid state stability; 40° C. for 1 week): stable
behaviour on handling / exposure at ambient conditions (Solid state stability): without any degradation

C[N+](C)(C)CCOC(=O)CCCCC1CCSS1.[Br-] (centres unmarked) [LACE bromide]
Hygroscopicity [3]: hygroscopic

C[N+](C)(C)CCOC(=O)CCCCC1CCSS1.Cc1ccc(S(=O)(=O)[O-])cc1 (centres unmarked) [Form A, lipoic acid choline ester tosylate]
Hygroscopicity [6]: deliquescent >70% RH
Hygroscopicity, water uptake [6]: 0.64% water uptake until

lipoic acid choline ester besylate [LACE-OBs]
behaviour on handling / exposure at ambient conditions (Solid state stability): without any degradation

C[N+](C)(C)CCOC(=O)CCCCC1CCSS1.Cc1ccc(S(=O)(=O)[O-])cc1 (centres unmarked) [Form B, lipoic acid choline ester tosylate]
Hygroscopicity [6]: deliquescent >70% RH
Hygroscopicity, water uptake [6]: 0.55% water uptake until
